Assay results reported in PubChem BioAssay (NCI).
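A five-concentration, 48-hour dose response in 96-well plates underlies each endpoint, interpolated linearly between surrounding concentrations. TGI is the concentration that stops growth completely.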

Assays:
Experiment in all cases: NCI anticancer screen, dose series, 48 h
HT29 colon = test system: HT29 colon
IGROV1 ovarian = test system: IGROV1 ovarian
SF-268 CNS = test system: SF-268 CNS
A498 renal = test system: A498 renal
786-0 renal = test system: 786-0 renal
MDA-N = test system: MDA-N
MDA-MB-231 breast = test system: MDA-MB-231 breast
OVCAR-8 ovarian = test system: OVCAR-8 ovarian
BT-549 breast = test system: BT-549 breast
HCT-15 colon = test system: HCT-15 colon
T-47D breast = test system: T-47D breast
SNB-19 CNS = test system: SNB-19 CNS
TK-10 renal = test system: TK-10 renal
CAKI-1 renal = test system: CAKI-1 renal
KM12 colon = test system: KM12 colon
COLO 205 colon = test system: COLO 205 colon
HCC-2998 colon = test system: HCC-2998 colon
HS 578T breast = test system: HS 578T breast
MDA-MB-435 = test system: MDA-MB-435
SF-295 CNS = test system: SF-295 CNS
EKVX NSCLC = test system: EKVX NSCLC
MCF7 breast = test system: MCF7 breast
LOX IMVI melanoma = test system: LOX IMVI melanoma
K-562 leukemia = test system: K-562 leukemia
MALME-3M melanoma = test system: MALME-3M melanoma
HCT-116 colon = test system: HCT-116 colon
A549 NSCLC = test system: A549 NSCLC
OVCAR-5 ovarian = test system: OVCAR-5 ovarian
PC-3 prostate = test system: PC-3 prostate
SK-OV-3 ovarian = test system: SK-OV-3 ovarian
SK-MEL-2 melanoma = test system: SK-MEL-2 melanoma
HOP-92 NSCLC = test system: HOP-92 NSCLC
NCI-H460 lung = test system: NCI-H460 lung
SNB-75 CNS = test system: SNB-75 CNS
RPMI-8226 leukemia = test system: RPMI-8226 leukemia
NCI-H226 lung = test system: NCI-H226 lung
SN12C renal = test system: SN12C renal
M14 melanoma = test system: M14 melanoma
ACHN renal = test system: ACHN renal
NCI-H23 lung = test system: NCI-H23 lung
UO-31 renal = test system: UO-31 renal
U251 CNS = test system: U251 CNS
DU-145 prostate = test system: DU-145 prostate
OVCAR-3 ovarian = test system: OVCAR-3 ovarian
NCI/ADR-RES ovarian = test system: NCI/ADR-RES ovarian
HOP-62 NSCLC = test system: HOP-62 NSCLC
OVCAR-4 ovarian = test system: OVCAR-4 ovarian
SW-620 colon = test system: SW-620 colon
SK-MEL-28 melanoma = test system: SK-MEL-28 melanoma
RXF 393 renal = test system: RXF 393 renal
MOLT-4 leukemia = test system: MOLT-4 leukemia
SF-539 CNS = test system: SF-539 CNS
UACC-257 melanoma = test system: UACC-257 melanoma
CCRF-CEM leukemia = test system: CCRF-CEM leukemia
UACC-62 melanoma = test system: UACC-62 melanoma
SK-MEL-5 melanoma = test system: SK-MEL-5 melanoma
HL-60(TB) leukemia = test system: HL-60(TB) leukemia
NCI-H522 lung = test system: NCI-H522 lung

Measured: TGI

O=c1ccn(C2OC(CN(O)CCC3C(O)C(CO)OC3n3ccc(=O)[nH]c3=O)C(O)C2O)c(=O)[nH]1 (centres undefined)
> 100 µM: HT29 colon | IGROV1 ovarian | SF-268 CNS | A498 renal | 786-0 renal | MDA-N | MDA-MB-231 breast | OVCAR-8 ovarian | BT-549 breast | HCT-15 colon | T-47D breast | SNB-19 CNS | TK-10 renal | CAKI-1 renal | KM12 colon | COLO 205 colon | HCC-2998 colon | HS 578T breast | MDA-MB-435 | SF-295 CNS | EKVX NSCLC | MCF7 breast | LOX IMVI melanoma | K-562 leukemia | MALME-3M melanoma | HCT-116 colon | A549 NSCLC | OVCAR-5 ovarian | PC-3 prostate | SK-OV-3 ovarian | SK-MEL-2 melanoma | HOP-92 NSCLC | NCI-H460 lung | SNB-75 CNS | RPMI-8226 leukemia | NCI-H226 lung | SN12C renal | M14 melanoma | ACHN renal | NCI-H23 lung | UO-31 renal | U251 CNS | DU-145 prostate | OVCAR-3 ovarian | NCI/ADR-RES ovarian | HOP-62 NSCLC | OVCAR-4 ovarian

CC(C)(C)N1C(=O)N=[N+](/C(=C(\c2ccccc2)n2nc([O-])n(C(C)(C)C)c2=O)c2ccccc2)C1=O
> 100 µM: SF-268 CNS | A498 renal | 786-0 renal | MDA-N | MDA-MB-231 breast | BT-549 breast | SW-620 colon | SK-MEL-28 melanoma | HCT-15 colon | T-47D breast | SNB-19 CNS | TK-10 renal | CAKI-1 renal | RXF 393 renal | MOLT-4 leukemia | KM12 colon | COLO 205 colon | HCC-2998 colon | HS 578T breast | MDA-MB-435 | SF-295 CNS | SF-539 CNS | MCF7 breast | UACC-257 melanoma | LOX IMVI melanoma | K-562 leukemia | HCT-116 colon | A549 NSCLC | OVCAR-5 ovarian | PC-3 prostate | CCRF-CEM leukemia | UACC-62 melanoma | SK-OV-3 ovarian | SK-MEL-2 melanoma | HOP-92 NSCLC | NCI-H460 lung | SNB-75 CNS | RPMI-8226 leukemia | SK-MEL-5 melanoma | SN12C renal | M14 melanoma | ACHN renal | NCI-H23 lung | UO-31 renal | U251 CNS | DU-145 prostate | OVCAR-3 ovarian | OVCAR-4 ovarian

CCOP(=O)(OCC)OC1c2[nH]ccc2-c2cc(C(=O)OC)[nH]c2C1OC (centres undefined)
> 100 µM: HT29 colon | IGROV1 ovarian | SF-268 CNS | 786-0 renal | MDA-N | MDA-MB-231 breast | OVCAR-8 ovarian | BT-549 breast | SW-620 colon | SK-MEL-28 melanoma | HCT-15 colon | T-47D breast | SNB-19 CNS | TK-10 renal | CAKI-1 renal | RXF 393 renal | HL-60(TB) leukemia | MOLT-4 leukemia | KM12 colon | COLO 205 colon | HCC-2998 colon | HS 578T breast | MDA-MB-435 | SF-295 CNS | EKVX NSCLC | SF-539 CNS | MCF7 breast | UACC-257 melanoma | LOX IMVI melanoma | K-562 leukemia | MALME-3M melanoma | HCT-116 colon | A549 NSCLC | OVCAR-5 ovarian | PC-3 prostate | NCI-H522 lung | CCRF-CEM leukemia | UACC-62 melanoma | SK-OV-3 ovarian | SK-MEL-2 melanoma | NCI-H460 lung | SNB-75 CNS | SK-MEL-5 melanoma | SN12C renal | M14 melanoma | ACHN renal | NCI-H23 lung | UO-31 renal | U251 CNS | DU-145 prostate | OVCAR-3 ovarian | NCI/ADR-RES ovarian | HOP-62 NSCLC | OVCAR-4 ovarian
